# According to article PMC8082450, “Protein Serine/Threonine Phosphatase Type 2C of Leishmania mexicana” (Frontiers in Cellular and Infection Microbiology, 2021):
# Target: T1, LmxPP2C (Leishmania mexicana, UniProt E9AXF3)
# T1 construct: gene LMXM_25_0750
# T1 sequence (E9AXF3 1-406): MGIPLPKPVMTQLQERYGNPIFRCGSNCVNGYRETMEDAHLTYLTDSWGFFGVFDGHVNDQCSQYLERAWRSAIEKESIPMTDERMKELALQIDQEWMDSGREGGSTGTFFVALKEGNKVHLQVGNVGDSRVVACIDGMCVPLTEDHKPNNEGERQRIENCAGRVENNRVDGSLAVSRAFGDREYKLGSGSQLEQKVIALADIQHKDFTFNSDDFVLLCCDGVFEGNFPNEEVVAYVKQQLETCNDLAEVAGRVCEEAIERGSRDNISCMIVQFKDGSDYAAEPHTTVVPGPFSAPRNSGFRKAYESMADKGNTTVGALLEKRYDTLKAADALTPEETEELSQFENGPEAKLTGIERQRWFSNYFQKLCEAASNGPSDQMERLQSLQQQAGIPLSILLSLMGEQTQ
# Assay: phosphatase inhibition assay, p-NPP hydrolysis at […] nm
# Format: biochemical
smiles,measurement,setting,value
C[n+]1cc2c3c(ccc2c2ccc4cc5c(cc4c21)OCO5)OCO3 [sanguinarine],inhibition at 20 µM,,81%
C=C1[C@@H](O)[C@@H]2O[C@]3(CC[C@H](/C=C/[C@@H](C)[C@@H]4CC(C)=C[C@@]5(O[C@H](C[C@@](C)(O)C(=O)O)CC[C@H]5O)O4)O3)CC[C@H]2O[C@@H]1[C@@H](O)C[C@H](C)[C@H]1O[C@@]2(CCCCO2)CC[C@H]1C [okadaic acid],inhibition at 1 µM,read-out: % inhibition at 1 μM,14%
COC[C@@H]([C@H](O)[C@H](O)C(=O)NCC[C@H](C)c1nc(/C=C/C[C@@H]2O[C@]3(C[C@@H](O)[C@@H]2C)O[C@H]([C@H](C[C@H](O)[C@H](C)[C@H](O)[C@H](C)/C=C(C)/C(C)=C/C=C/C(C)=C\C#N)OC)[C@H](OP(=O)(O)O)C3(C)C)co1)N(C)C [calyculin],inhibition at 0.005 µM,read-out: % inhibition at 5 nM,18%
